For orientation: IC50 means the concentration needed to halve the response being measured.

Here are results for 23 molecules from patent publication US10766878B2, “Sulfonylcycloalkyl carboxamide compounds” (Genentech, Inc., priority 2017, dated 2020).

Structures are written as SMILES.

The target of this test is human TRPA1 (Homo sapiens (Human), UniProt O75762). The test can be described thus: hTRPA1 CHO Ca2+ AUC EVO (IC50); FLIPR Tetra block of cinnamaldehyde induced calcium influx. It is filed as cell-based. Particulars: CHO cells expressing TRPA1, 75 uM cinnamaldehyde agonist. The procedure:
IC50 values ([…]) of compounds on the human and rat TRPA1 channels were determined using a FLIPR Tetra instrument. CHO cells expressing TRPA1 were plated into 384-well plates, incubated overnight at 37 C, and loaded with BD calcium indicator dye for 1 hr at 37° C. followed by 15 minutes. at room temperature. The assay buffer was Hank's Balanced Salt Solution (HBSS) containing 20 mM HEPES (pH readjusted to 7.4) along with 0.02% BSA.
Following dye load and plate cool down, compounds were added to the cells using FLIPR Tetra. Plates were then incubated with compounds for 20 minutes at room temperature prior to adding agonist. Following this incubation, ˜EC80 concentration of cinnamaldehyde (75 uM for human TRPA1 and 45 uM for rat TRPA1) was added to active the channels and block of cinnamaldehyde induced calcium influx was measured.
IC50 values were fit with a standard Hill function, keeping the Hill coefficient (n) fixed to 1.5. Fixing the Hill coefficient will generally reduce variability of the IC50 determination. The IC50 values were individually examined to make sure the MIN and MAX points were set correctly prior to validation of the results.

Sequence of human TRPA1 (O75762 whole entry): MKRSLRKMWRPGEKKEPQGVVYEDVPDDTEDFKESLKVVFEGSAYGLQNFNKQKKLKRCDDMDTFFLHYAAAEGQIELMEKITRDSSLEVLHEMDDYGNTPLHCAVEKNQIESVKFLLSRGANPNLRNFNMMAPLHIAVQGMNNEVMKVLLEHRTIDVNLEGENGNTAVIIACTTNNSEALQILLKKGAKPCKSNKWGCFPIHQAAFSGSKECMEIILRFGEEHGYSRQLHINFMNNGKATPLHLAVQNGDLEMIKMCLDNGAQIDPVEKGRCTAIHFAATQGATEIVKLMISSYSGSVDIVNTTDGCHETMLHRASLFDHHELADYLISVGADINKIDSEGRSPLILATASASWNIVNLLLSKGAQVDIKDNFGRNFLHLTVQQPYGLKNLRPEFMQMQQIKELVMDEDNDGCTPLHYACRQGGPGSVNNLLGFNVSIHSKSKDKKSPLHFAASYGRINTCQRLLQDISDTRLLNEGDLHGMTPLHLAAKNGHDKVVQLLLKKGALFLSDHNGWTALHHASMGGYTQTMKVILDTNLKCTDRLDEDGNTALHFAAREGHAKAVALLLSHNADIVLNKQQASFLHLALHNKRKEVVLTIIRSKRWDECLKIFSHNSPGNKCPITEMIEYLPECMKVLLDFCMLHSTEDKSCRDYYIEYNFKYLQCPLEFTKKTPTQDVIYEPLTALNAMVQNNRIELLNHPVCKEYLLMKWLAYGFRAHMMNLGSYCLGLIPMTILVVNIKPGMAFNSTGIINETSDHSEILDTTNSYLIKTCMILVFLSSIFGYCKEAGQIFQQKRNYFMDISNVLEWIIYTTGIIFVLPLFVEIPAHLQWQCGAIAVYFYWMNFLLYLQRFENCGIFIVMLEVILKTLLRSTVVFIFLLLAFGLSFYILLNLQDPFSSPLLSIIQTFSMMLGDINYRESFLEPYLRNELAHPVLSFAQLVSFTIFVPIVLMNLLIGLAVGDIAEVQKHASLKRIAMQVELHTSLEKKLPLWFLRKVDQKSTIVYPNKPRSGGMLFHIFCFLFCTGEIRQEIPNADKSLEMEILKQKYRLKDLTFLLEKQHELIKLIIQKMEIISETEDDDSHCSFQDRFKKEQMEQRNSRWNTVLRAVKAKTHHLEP

For `O=C(Cc1cn(-c2cnc(C(F)(F)F)nc2)nc1Cl)N[C@@H]1CC[C@@H]1S(=O)(=O)c1ccc(F)cc1` [Example 7, 2-(3-chloro-1-(2-(trifluoromethyl)pyrimidin-5-yl)-1H-pyrazol-4-yl)-N-((1R,2S)-2-(4-fluorophenylsulfonyl)cyclobutyl) acetamide], the IC50 reads like this: (Table 1) 40.3 nM; (Table 3) 40.3 nM.

Take `O=C(NCc1cc(-c2ccc(C(F)(F)F)nc2)ncc1Cl)[C@@H]1CC[C@@H]1S(=O)(=O)c1ccc(F)cc1` [Example 15]: for the setting “Table 3”, the IC50 was determined as 140 nM.

Turning to `O=C(Cc1cn(-c2cnc(C(F)(F)F)nc2)nc1C(F)(F)F)N[C@@H]1CC[C@@H]1[S+]([O-])c1ccc(F)cc1` (stereo partly drawn) [Example 2, N-((1R,2S)-2-(4-fluorophenylsulfinyl)cyclobutyl)-2-(3-(trifluoromethyl)-1-(2-(trifluoromethyl)pyrimidin-5-yl)-1H-pyrazol-4-yl)acetamide], the IC50 (Table 3) amounted to 500 nM.

`O=C(NCc1cn(-c2ccc(C(F)(F)F)nc2)nc1C(F)(F)F)C1CCC1S(=O)(=O)c1ccc(F)cc1` (single isomer, unassigned; enantiomer 3) [Example 26, 2-(4-fluorophenylsulfonyl)-N-((3-(trifluoromethyl)-1-(6-(trifluoromethyl)pyridin-3-yl)-1H-pyrazol-4-yl)methyl) cyclobutanecarboxamide (Enantiomer 3)]: for the setting “Table 3”, the IC50 was 90.2 nM.

`O=C(NCc1cn(-c2ccc(C(F)(F)F)nc2)nc1C(F)(F)F)[C@@H]1CCC[C@@H]1S(=O)(=O)c1ccc(F)cc1` [Example 41, (1S,2S)-2-[(4-fluorobenzene)sulfonyl]-N-[[3-(trifluoromethyl)-1-[6-(trifluoromethyl)pyridin-3-yl]-1H-pyrazol-4-yl]methyl]cyclopentane-1-carboxamide]: the IC50 (Table 3) was 40.4 nM.

Turning to `O=C(NCc1cn(-c2ccc(C(F)(F)F)cc2)nc1Cl)[C@@H]1CCC[C@@H]1S(=O)(=O)c1ccc(F)cc1` [Example 43, (1S,2S)-N-((3-chloro-1-(4-(trifluoromethyl)phenyl)-1H-pyrazol-4-yl)methyl)-2-(4-fluorophenylsulfonyl) cyclopentanecarboxamide], the IC50 is, setting by setting: (Table 1) 38.9 nM; (Table 3) 38.9 nM.

Turning to `CC1(C(=O)NCc2cn(-c3ccc(C(F)(F)F)cc3)nc2Cl)CCCC1S(=O)(=O)c1ccc(F)cc1` (single isomer, unassigned; enantiomer 2) [Example 37, N-((3-chloro-1-(4-(trifluoromethyl)phenyl)-1H-pyrazol-4-yl)methyl)-2-(4-fluorophenylsulfonyl)-1-methylcyclopentanecarboxamide (Enantiomer 2)], the IC50 is, setting by setting: (Table 1) 23.9 nM; (Table 3) 23.9 nM.

`O=C(NCc1cn(-c2ccc(C(F)(F)F)cc2)nc1C(F)F)C1CCC1S(=O)(=O)c1ccc(F)cc1` (single isomer, unassigned; enantiomer 2) [Example 18, N-((3-(difluoromethyl)-1-(4-(trifluoromethyl)phenyl)-1H-pyrazol-4-yl)methyl)-2-(4-fluorophenylsulfonyl) cyclobutanecarboxamide (Enantiomer 2)]: the IC50 (Table 3) came to 96 nM.

Turning to `O=C(NCc1cc(-c2ccc(C(F)(F)F)cc2)ncn1)[C@@H]1CC[C@@H]1S(=O)(=O)c1ccc(F)cc1` [Example 27, (1S,2S)-2-(4-fluorophenylsulfonyl)-N-((6-(4-(trifluoromethyl)phenyl)pyrimidin-4-yl)methyl)cyclobutanecarboxamide], where the note is “Table 3”, the IC50 worked out at 113 nM.

Turning to `CC1(C(=O)NCc2cn(-c3ccc(C(F)(F)F)nc3)nc2Cl)CCCC1S(=O)(=O)c1ccc(F)cc1` (single isomer, unassigned; enantiomer 1) [Example 31, N-((3-chloro-1-(6-(trifluoromethyl)pyridin-3-yl)-1H-pyrazol-4-yl)methyl)-2-(4-fluorophenylsulfonyl)-1-methylcyclopentanecarboxamide (Enantiomer 1)], the IC50 (Table 1) amounted to 39.2 nM and the IC50 (Table 3) turned out to be 39.2 nM.

In the case of `O=C(NCc1cn(-c2ccc(C(F)(F)F)cc2)nc1Cl)C1CCC1S(=O)(=O)c1ccc(F)cc1` (single isomer, unassigned; enantiomer 2) [Example 29, N-((3-chloro-1-(4-(trifluoromethyl)phenyl)-1H-pyrazol-4-yl)methyl)-2-(4-fluorophenylsulfonyl) cyclobutanecarboxamide (Enantiomer 2)], under “Table 3”, the IC50 was found to be 65.8 nM.

In the case of `COc1nn(-c2ccc(C(F)(F)F)cc2)cc1CC(=O)N[C@@H]1CC[C@@H]1S(=O)(=O)c1ccc(F)cc1` [Example 14, N-((1R,2S)-2-((4-fluorophenyl)sulfonyl)cyclobutyl)-2-(3-methoxy-1-(4-(trifluoromethyl)phenyl)-1H-pyrazol-4-yl)acetamide], the IC50 (Table 1) turned out to be 5.2 nM and the IC50 (Table 3) is 5.2 nM.

In the case of `O=C(NCc1cn(-c2cnc(C(F)(F)F)nc2)nc1C(F)F)[C@@H]1CC[C@@H]1S(=O)(=O)c1ccc(F)cc1` [Example 16, (1S,2S)-N-((3-(difluoromethyl)-1-(2-(trifluoromethyl)pyrimidin-5-yl)-1H-pyrazol-4-yl)methyl)-2-(4-fluorophenylsulfonyl) cyclobutanecarboxamide], the IC50 (Table 3) is 162 nM.

For `O=C(NCc1cn(-c2ccc(C(F)(F)F)nc2)nc1C(F)(F)F)C1CCC1S(=O)(=O)c1ccc(F)cc1` (single isomer, unassigned; enantiomer 2) [Example 25, 2-(4-fluorophenylsulfonyl)-N-((3-(trifluoromethyl)-1-(6-(trifluoromethyl)pyridin-3-yl)-1H-pyrazol-4-yl)methyl) cyclobutanecarboxamide (Enantiomer 2)], the IC50 (Table 3) came out at 192 nM.

For `O=C(NCc1cn(-c2ccc(C(F)(F)F)cc2)nc1Cl)C1CCCC1S(=O)(=O)c1ccc(F)cc1` (single isomer, unassigned; enantiomer 2) [Example 42, N-((3-chloro-1-(4-(trifluoromethyl)phenyl)-1H-pyrazol-4-yl)methyl)-2-(4-fluorophenylsulfonyl) cyclopentanecarboxamide (Enantiomer 2)], the IC50 amounted to 45.5 nM (Table 1) and 45.5 nM (Table 3).

As for `COc1nn(-c2ccc(C(F)(F)F)cc2)cc1CNC(=O)C1CCC1(C)S(=O)(=O)c1ccc(F)cc1` (single isomer, unassigned; enantiomer 2) [Example 23, 2-(4-fluorophenylsulfonyl)-N-((3-methoxy-1-(4-(trifluoromethyl)phenyl)-1H-pyrazol-4-yl)methyl)-2-methylcyclobutanecarboxamide (Enantiomer 2)], the IC50 reads like this: (Table 1) 38 nM; (Table 3) 38 nM.

`COc1nn(-c2ccc(C(F)F)cc2)cc1CC(=O)N[C@@H]1CC[C@@H]1S(=O)(=O)c1ccc(F)cc1` [Example 10, 2-(1-(4-(difluoromethyl)phenyl)-3-methoxy-1H-pyrazol-4-yl)-N-((1R,2S)-2-(4-fluorophenylsulfonyl)cyclobutyl) acetamide]: the IC50 (Table 3) worked out at 43.6 nM.

On to `CC1(C(=O)NCc2cn(-c3ccc(C(F)(F)F)nc3)nc2Cl)CCCC1S(=O)(=O)c1ccc(F)cc1` (single isomer, unassigned; enantiomer 2) [Example 32, N-((3-chloro-1-(6-(trifluoromethyl)pyridin-3-yl)-1H-pyrazol-4-yl)methyl)-2-(4-fluorophenylsulfonyl)-1-methylcyclopentanecarboxamide (Enantiomer 2)], for which, where the note is “Table 3”, the IC50 amounted to 85.7 nM.

For the molecule `CC1(C(=O)NCc2cn(-c3ccc(C(F)(F)F)cc3)nc2Cl)CCCC1S(=O)(=O)c1ccc(F)cc1` (single isomer, unassigned; enantiomer 3) [Example 38, N-((3-chloro-1-(4-(trifluoromethyl)phenyl)-1H-pyrazol-4-yl)methyl)-2-(4-fluorophenylsulfonyl)-1-methylcyclopentanecarboxamide (Enantiomer 3)], the IC50 is 47.1 nM (Table 1) and 47.1 nM (Table 3).

As to `O=C(NCc1cn(-c2ccc(C(F)(F)F)nc2)nc1C(F)(F)F)[C@@H]1CC[C@@H]1S(=O)(=O)c1ccc(F)cc1` [Example 24, (1S,2S)-2-(4-fluorophenylsulfonyl)-N-((3-(trifluoromethyl)-1-(6-(trifluoromethyl)pyridin-3-yl)-1H-pyrazol-4-yl)methyl)cyclobutanecarboxamide], the IC50 runs as follows: (Table 1) 41.5 nM; (Table 3) 41.5 nM.

With `O=C(Cc1cn(-c2cnc(C(F)(F)F)nc2)nc1C(F)(F)F)N[C@@H]1CC[C@@H]1S(=O)(=O)c1ccc(F)cc1` [Example 3, N-((1R,2S)-2-(4-fluorophenylsulfonyl)cyclobutyl)-2-(3-(trifluoromethyl)-1-(2-(trifluoromethyl)pyrimidin-5-yl)-1H-pyrazol-4-yl)acetamide], the IC50 reads like this: (Table 1) 7.88 nM; (Table 3) 7.88 nM.

As to `CC1(C(=O)NCc2cn(-c3ccc(C(F)(F)F)nc3)nc2Cl)CCCC1S(=O)(=O)c1ccc(F)cc1` (single isomer, unassigned; enantiomer 3) [Example 33, N-((3-chloro-1-(6-(trifluoromethyl)pyridin-3-yl)-1H-pyrazol-4-yl)methyl)-2-(4-fluorophenylsulfonyl)-1-methylcyclopentanecarboxamide (Enantiomer 3)], for the setting “Table 3”, the IC50 came out at 88.5 nM.

`O=C(NCc1cn(-c2ccc(C(F)(F)F)cc2)nc1Cl)[C@@H]1CC[C@@H]1S(=O)(=O)c1ccc(F)cc1` [Example 28, (1S,2S)-N-((3-chloro-1-(4-(trifluoromethyl)phenyl)-1H-pyrazol-4-yl)methyl)-2-(4-fluorophenylsulfonyl) cyclobutanecarboxamide]: the concentration for half-maximal inhibition (IC50) (Table 1) was determined as 19.4 nM and the IC50 (Table 3) was 19.4 nM.
